Experimental data from PubChem BioAssay (NCI).
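Assay format: 96-well plates, 48-hour exposure. Definition used: TGI = concentration required for complete inhibition of growth.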

Assays:
Assay in all cases: inhibition of tumour cell growth, NCI panel, 48 h
HOP-62 NSCLC = test system: HOP-62 NSCLC
ACHN renal = test system: ACHN renal
NCI-H226 lung = test system: NCI-H226 lung
CCRF-CEM leukemia = test system: CCRF-CEM leukemia
786-0 renal = test system: 786-0 renal
DMS 114 small cell lung = test system: DMS 114 small cell lung
HCT-15 colon = test system: HCT-15 colon
RXF-631 renal = test system: RXF-631 renal
HCC-2998 colon = test system: HCC-2998 colon
SK-MEL-5 melanoma = test system: SK-MEL-5 melanoma
HOP-92 NSCLC = test system: HOP-92 NSCLC
OVCAR-3 ovarian = test system: OVCAR-3 ovarian
HCT-116 colon = test system: HCT-116 colon
OVCAR-8 ovarian = test system: OVCAR-8 ovarian
TK-10 renal = test system: TK-10 renal
IGROV1 ovarian = test system: IGROV1 ovarian
DLD-1 colon = test system: DLD-1 colon
SK-MEL-28 melanoma = test system: SK-MEL-28 melanoma
SNB-78 CNS = test system: SNB-78 CNS
K-562 leukemia = test system: K-562 leukemia
UACC-257 melanoma = test system: UACC-257 melanoma
OVCAR-4 ovarian = test system: OVCAR-4 ovarian
SNB-19 CNS = test system: SNB-19 CNS
NCI-H23 lung = test system: NCI-H23 lung
SF-268 CNS = test system: SF-268 CNS
HL-60(TB) leukemia = test system: HL-60(TB) leukemia
KM20L2 colon = test system: KM20L2 colon
COLO 205 colon = test system: COLO 205 colon
EKVX NSCLC = test system: EKVX NSCLC
KM12 colon = test system: KM12 colon
SF-539 CNS = test system: SF-539 CNS
SN12C renal = test system: SN12C renal
U251 CNS = test system: U251 CNS
SW-620 colon = test system: SW-620 colon
CAKI-1 renal = test system: CAKI-1 renal
SK-MEL-2 melanoma = test system: SK-MEL-2 melanoma
HOP-18 NSCLC = test system: HOP-18 NSCLC
XF 498 CNS = test system: XF 498 CNS
LXFL 529 NSCLC = test system: LXFL 529 NSCLC
M14 melanoma = test system: M14 melanoma
DMS 273 small cell lung = test system: DMS 273 small cell lung
MOLT-4 leukemia = test system: MOLT-4 leukemia
UACC-62 melanoma = test system: UACC-62 melanoma
RXF 393 renal = test system: RXF 393 renal
NCI-H522 lung = test system: NCI-H522 lung
OVCAR-5 ovarian = test system: OVCAR-5 ovarian
M19-MEL melanoma = test system: M19-MEL melanoma
LOX IMVI melanoma = test system: LOX IMVI melanoma
SNB-75 CNS = test system: SNB-75 CNS
SF-295 CNS = test system: SF-295 CNS
A549 NSCLC = test system: A549 NSCLC
HT29 colon = test system: HT29 colon
RPMI-8226 leukemia = test system: RPMI-8226 leukemia
NCI-H460 lung = test system: NCI-H460 lung
A498 renal = test system: A498 renal
SK-OV-3 ovarian = test system: SK-OV-3 ovarian
MALME-3M melanoma = test system: MALME-3M melanoma
UO-31 renal = test system: UO-31 renal
MCF7 breast = test system: MCF7 breast
HS 578T breast = test system: HS 578T breast
DU-145 prostate = test system: DU-145 prostate
BT-549 breast = test system: BT-549 breast
PC-3 prostate = test system: PC-3 prostate
SR leukemia = test system: SR leukemia
MDA-MB-435 = test system: MDA-MB-435
MDA-N = test system: MDA-N
T-47D breast = test system: T-47D breast

C[C@]12Cc3cn[nH]c3C(=O)C1CC[C@@H]1C2CC[C@@]2(C)C1CC[C@]2(C)O (stereo partly specified)
TGI (HOP-62 NSCLC): > 100 µM
TGI (ACHN renal): > 100 µM
TGI (NCI-H226 lung): > 100 µM
TGI (CCRF-CEM leukemia): > 100 µM
TGI (786-0 renal): > 100 µM
TGI (DMS 114 small cell lung): > 100 µM
TGI (HCT-15 colon): > 100 µM
TGI (RXF-631 renal): > 100 µM
TGI (HCC-2998 colon): > 100 µM
TGI (SK-MEL-5 melanoma): > 100 µM
TGI (HOP-92 NSCLC): > 100 µM
TGI (OVCAR-3 ovarian): > 100 µM
TGI (HCT-116 colon): > 100 µM
TGI (OVCAR-8 ovarian): > 100 µM
TGI (TK-10 renal): > 100 µM
TGI (IGROV1 ovarian): > 100 µM
TGI (DLD-1 colon): > 100 µM
TGI (SK-MEL-28 melanoma): > 100 µM
TGI (SNB-78 CNS): > 100 µM
TGI (K-562 leukemia): > 100 µM
TGI (UACC-257 melanoma): > 100 µM
TGI (OVCAR-4 ovarian): > 100 µM
TGI (SNB-19 CNS): > 100 µM
TGI (NCI-H23 lung): > 100 µM
TGI (SF-268 CNS): > 100 µM
TGI (HL-60(TB) leukemia): > 100 µM
TGI (KM20L2 colon): > 100 µM
TGI (COLO 205 colon): > 100 µM
TGI (EKVX NSCLC): > 100 µM
TGI (KM12 colon): > 100 µM
TGI (SF-539 CNS): > 100 µM
TGI (SN12C renal): > 100 µM
TGI (U251 CNS): > 100 µM
TGI (SW-620 colon): > 100 µM
TGI (CAKI-1 renal): > 100 µM
TGI (SK-MEL-2 melanoma): > 100 µM
TGI (HOP-18 NSCLC): > 100 µM
TGI (XF 498 CNS): > 100 µM
TGI (LXFL 529 NSCLC): > 100 µM
TGI (M14 melanoma): > 100 µM
TGI (DMS 273 small cell lung): > 100 µM
TGI (MOLT-4 leukemia): > 100 µM
TGI (UACC-62 melanoma): > 100 µM
TGI (RXF 393 renal): > 100 µM
TGI (NCI-H522 lung): > 100 µM
TGI (OVCAR-5 ovarian): > 100 µM
TGI (M19-MEL melanoma): > 100 µM
TGI (LOX IMVI melanoma): > 100 µM
TGI (SNB-75 CNS): > 100 µM
TGI (SF-295 CNS): > 100 µM
TGI (A549 NSCLC): > 100 µM
TGI (HT29 colon): > 100 µM
TGI (RPMI-8226 leukemia): > 100 µM
TGI (NCI-H460 lung): > 100 µM
TGI (A498 renal): > 100 µM
TGI (SK-OV-3 ovarian): > 100 µM
TGI (MALME-3M melanoma): > 100 µM
TGI (UO-31 renal): > 100 µM

C=C(CN(C)C)C(=O)c1ccc(OC2OC(COC(C)=O)C(OC(C)=O)C(OC(C)=O)C2OC(C)=O)cc1 (stereo unspecified)
TGI (MCF7 breast): 5.51 µM
TGI (HOP-62 NSCLC): 24.3 µM
TGI (ACHN renal): 3.21 µM
TGI (NCI-H226 lung): 19.8 µM
TGI (CCRF-CEM leukemia): 0.342 µM
TGI (786-0 renal): 3.82 µM
TGI (DMS 114 small cell lung): 14.6 µM
TGI (HCT-15 colon): 11.3 µM
TGI (RXF-631 renal): 29.3 µM
TGI (HCC-2998 colon): 36.8 µM
TGI (SK-MEL-5 melanoma): 20.3 µM
TGI (HS 578T breast): > 83.7 µM
TGI (OVCAR-3 ovarian): 14.5 µM
TGI (HCT-116 colon): 6.12 µM
TGI (OVCAR-8 ovarian): 19.2 µM
TGI (TK-10 renal): 7.06 µM
TGI (IGROV1 ovarian): 36.1 µM
TGI (DLD-1 colon): 3.83 µM
TGI (SK-MEL-28 melanoma): 9.22 µM
TGI (DU-145 prostate): 31.3 µM
TGI (SNB-78 CNS): 50.8 µM
TGI (K-562 leukemia): 0.474 µM
TGI (UACC-257 melanoma): 5.94 µM
TGI (OVCAR-4 ovarian): > 29.2 µM
TGI (SNB-19 CNS): 39.4 µM
TGI (BT-549 breast): 10.8 µM
TGI (NCI-H23 lung): 43.3 µM
TGI (SF-268 CNS): 62 µM
TGI (HL-60(TB) leukemia): > 100 µM
TGI (KM20L2 colon): 40.8 µM
TGI (PC-3 prostate): 32 µM
TGI (COLO 205 colon): 3.17 µM
TGI (EKVX NSCLC): 54.2 µM
TGI (KM12 colon): 41.6 µM
TGI (SF-539 CNS): 30.6 µM
TGI (SN12C renal): 26.2 µM
TGI (U251 CNS): 46.2 µM
TGI (SW-620 colon): 3.17 µM
TGI (CAKI-1 renal): 9.54 µM
TGI (SK-MEL-2 melanoma): 33.3 µM
TGI (HOP-18 NSCLC): 9.82 µM
TGI (XF 498 CNS): 9.77 µM
TGI (LXFL 529 NSCLC): 2.9 µM
TGI (M14 melanoma): 11.2 µM
TGI (DMS 273 small cell lung): > 51.7 µM
TGI (UACC-62 melanoma): 22.4 µM
TGI (RXF 393 renal): 3.69 µM
TGI (OVCAR-5 ovarian): 37.4 µM
TGI (SR leukemia): 4.94 µM
TGI (LOX IMVI melanoma): 8.49 µM
TGI (SNB-75 CNS): 38.5 µM
TGI (SF-295 CNS): 36 µM
TGI (A549 NSCLC): 45.2 µM
TGI (MDA-MB-435): 14.2 µM
TGI (HT29 colon): 12.2 µM
TGI (RPMI-8226 leukemia): > 100 µM
TGI (MDA-N): 11.1 µM
TGI (NCI-H460 lung): 40.8 µM
TGI (A498 renal): 21 µM
TGI (SK-OV-3 ovarian): 35.5 µM
TGI (T-47D breast): 15.7 µM
TGI (MALME-3M melanoma): 7.51 µM
TGI (UO-31 renal): 6.73 µM
